Source: patent US9012475B2, “Method for enhancing anti-tumor effect of a microtubule-targeting drug, and a method for treatment of tumor” (Taiho Pharmaceutical Co., Ltd., priority 2013, dated 2015)
Entries after “also recorded” stand apart in the source; their conditions may differ. Read-outs that look alike come from different tables or passages of the source.

Legend:
[1] = then 24 hours later MK-5108 orally twice per day over 2 days; cited from earlier work
[2] = system: human-derived lung cancer cell strain NCI-H460 (H460); experiment: Schedule of administration in combination with paclitaxel, NCI-H460 subcutaneous graft; assay type: in vivo
Method: The study was performed according to the method in Example 1. Cells (1×10^7) of human-derived lung cancer cell strain NCI-H460 (H460) were subcutaneously grafted to right abdomens of nude mice. […] Group 1 was defined as a control group, Group 2 and 3 were defined as a paclitaxel single administration group and Compound 1 single administration group, respectively. Group 4 and 5 were defined as an administration group in combination with paclitaxel and Compound 1. Paclitaxel was intravenously administered in a dose of 60 mg/kg twice, i.e., day 1 and day 8 (Group 2, 4 and 5). In Group 3 and 5, Compound 1 was orally administered twice per day in a dose of 60 mg/kg, for 4 days from the next day of paclitaxel administration and for 4 days from day 9 of paclitaxel administration. In Group 4, Compound 1 was orally administered twice per day in a dose of 60 mg/kg from the next day of paclitaxel administration for 2 days and from day 9 for 2 days. In Group 3, 4 and 5, the dose per day of Compound 1 was 120 mg/kg/day. […]
Furthermore, the body weights of mice were measured with time and a body weight change rate (BWC) was computationally obtained according to the following expression. […]

[3] = system: human-derived uterus cancer cell strain HeLa-luc; settings: for number of CR cases: 5 rats
From the text: Cells (1×10^7) of human-derived uterus cancer cell strain HeLa-luc (manufactured by PerkinElmer Co., Ltd.) having a luciferase gene introduced therein were subcutaneously grafted to the right abdomens of nude rats. At the time the volume of a tumor developed from grafted cells reached about 200 mm^3, the rats were divided into groups each consisting of 5 rats according to stratified randomization such that each group had almost the same tumor volume. […] To Group 2 and 3, paclitaxel was administered and, on the next day, Compound 1 (30 mg/kg) was orally administered twice per day for one day or 4 days (sequential administration, see FIG. 1 (A), Sequential treatment). To the rats of Group 4 and 5, paclitaxel was administered and, on the same day, Compound 1 (30 mg/kg) was orally administered twice per day for 2 days or 4 days (concurrent administration, see FIG. 1 (B), Concurrent treatment). Compound 1 was suspended or dissolved in 0.5% (w/v) hydroxypropyl methyl cellulose (HPMC). Paclitaxel was dissolved in Cremophor EL and anhydrous ethanol, diluted with physiological saline so as to obtain a predetermined concentration and put in use.
The presence or absence of a therapeutic effect was determined by measuring the major axis and minor axis of a tumor with time and obtaining a tumor volume (TV), relative tumor volume (RTV) and T/C (%) value (average relative tumor volume ratio of the treatment group to the control group) on day 10 after initiation of administration according to the following expressions. Tumor volume (TV)={(major axis)×(minor axis)^2}/2 Relative tumor volume (RTVn) on measurement day (n)=TVn/TV1 T/C(%)={(average RTVn of treatment group)/(average RTVn of control group)}×100
TV1 represents tumor volume at the administration initiation time
Furthermore, an individual in which a tumor disappeared was specified as CR (complete remission/complete response) and the number of cases was obtained.

human Aurora B = human Aurora B (Homo sapiens (Human), UniProt Q96GD4); experiment: Measurement of Aurora B kinase activity; assay type: biochemical; settings: ATP 40 μM, 60 minutes
Chain of human Aurora B (Q96GD4 whole entry): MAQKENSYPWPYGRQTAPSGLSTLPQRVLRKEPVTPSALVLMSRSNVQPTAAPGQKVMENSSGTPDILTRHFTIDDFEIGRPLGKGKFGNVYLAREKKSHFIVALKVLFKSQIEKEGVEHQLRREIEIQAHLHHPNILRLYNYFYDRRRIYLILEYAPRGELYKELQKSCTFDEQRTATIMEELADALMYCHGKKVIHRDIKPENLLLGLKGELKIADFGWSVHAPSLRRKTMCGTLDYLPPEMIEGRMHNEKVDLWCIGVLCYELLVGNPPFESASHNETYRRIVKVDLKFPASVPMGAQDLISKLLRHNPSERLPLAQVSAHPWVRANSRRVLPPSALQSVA
Chain of human Aurora B (Q9NQS7 803-916 partner): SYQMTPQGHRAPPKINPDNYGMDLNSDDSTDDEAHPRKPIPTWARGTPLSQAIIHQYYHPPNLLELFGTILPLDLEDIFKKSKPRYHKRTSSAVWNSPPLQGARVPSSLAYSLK
Method: (§1) The inhibitory activities of a test compound against Aurora A and Aurora B were measured according to the following method.
The concentration of the compound at which 50% of the phosphorylation reaction was suppressed was defined as IC50 value (nM).

human Aurora A = human Aurora A (Homo sapiens (Human), UniProt O14965); experiment: Measurement of Aurora A inhibitory activity (IMAP fluorescence polarization kinase assay); assay type: biochemical; settings: ATP 5 μM, 25° C., 50 minutes
Chain of human Aurora A (O14965 whole entry): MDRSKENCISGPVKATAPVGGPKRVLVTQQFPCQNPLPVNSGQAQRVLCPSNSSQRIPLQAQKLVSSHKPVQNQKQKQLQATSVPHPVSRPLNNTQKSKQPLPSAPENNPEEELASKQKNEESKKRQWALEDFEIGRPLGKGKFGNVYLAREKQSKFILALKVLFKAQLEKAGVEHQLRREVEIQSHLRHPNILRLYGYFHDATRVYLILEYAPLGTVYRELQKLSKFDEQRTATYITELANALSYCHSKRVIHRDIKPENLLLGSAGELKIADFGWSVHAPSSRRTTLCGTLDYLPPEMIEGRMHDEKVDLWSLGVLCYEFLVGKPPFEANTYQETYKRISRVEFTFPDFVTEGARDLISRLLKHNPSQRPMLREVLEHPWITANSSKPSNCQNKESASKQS
Method: as §1
Complementary DNA of human Aurora A was fused with a histidine tag at the amino terminal, inserted into an expression vector and highly expressed in Escherichia coli BL21-CodonPlus (DE3)-RIL strain. After Escherichia coli was recovered and lysed, human Aurora A protein fused with a histidine tag was allowed to bind to a nickel chelate column and eluted by imidazole from the column. An active fraction was desalted by a desalting column to obtain purified enzyme.
In measuring inhibitory activity of the compound, first, the test compound was serially diluted by dimethylsulfoxide (DMSO). […] To the mixture, IMAP (registered trade mark) Progressive Binding Reagent diluted 500× with IMAP (registered trade mark) Progressive Binding Buffer A (manufactured by Molecular Devices) was added to terminate the kinase reaction. […] Based on the obtained fluorescence polarization degree, the amount of phosphorylation reaction was obtained.

[4] = Evaluation of oral absorption property; assay type: in vivo, BALE/cA mice; settings: oral administration in 0.5% HPMC, plasma 0.5-6 hours, LCMS
Method: A test compound was suspended or dissolved in 0.5% HPMC and orally administered to BALE/cA mice. At the time points of 0.5, 1, 2, 4 and 6 hours after oral administration, blood was sampled from the back of the eye to obtain blood plasma. The concentration of the compound in the obtained blood plasma was measured by LCMS and evaluated for oral absorption property.

[5] = system: human-derived lung cancer cell strain NCI-H460 (H460); experiment: Schedule of administration in combination with docetaxel (Example 2 (2)); assay type: in vivo, nude mice
Method: The study was performed according to the method in Example 1, except that docetaxel was used in place of paclitaxel. Furthermore, administration of Compound 1 was initiated from the administration day of docetaxel. Group 1 was defined as a control group. Docetaxel was dissolved in anhydrous ethanol and Tween 80 and thereafter diluted with 5% glucose injection liquid and intravenously administered in a dose of 30 mg/kg twice, i.e., on day 1 and day 8 (Group 2 and 4). In Group 3 and 4, Compound 1 was orally administered twice per day in a dose of 60 mg/kg, from the administration day of docetaxel for 4 days and from day 8 of docetaxel administration for 4 days.
In Group 3 and 4, the dose of Compound 1 per day was 120 mg/kg/day. Note that, in FIG. 2 (B), Group 1 is represented by Control, Group 2 by Docetaxel alone, Group 3 by Compound 1 alone and Group 4 by Combo (4 days).

Row | SMILES | antitumor effect in combination with docetaxel [1] | toxicity / side effect ([2]; Group 4 and 5: paclitaxel 60 mg/kg iv plus Compound 1 60 mg/kg po bid for 2 or 4 days per cycle) | tumor volume, Combo (4 days) versus Combo (2 days) ([2]; paclitaxel 60 mg/kg iv day 1 and 8, Compound 1 60 mg/kg po bid for 4 days (Group 5) vs 2 days (Group 4) per 7-day cycle) | number of CR cases ([3]; Group 2: paclitaxel 10 mg/kg iv, from next day Compound 1 30 mg/kg po twice per day for one day (sequential)) | number of CR cases ([3]; Group 3: paclitaxel 10 mg/kg iv, from next day Compound 1 30 mg/kg po twice per day for 4 days (sequential)) | toxicity / side effect ([3]; Group 3 and 5: paclitaxel 10 mg/kg iv plus Compound 1 30 mg/kg po bid for 4 days) | number of CR cases ([3]; Group 4: paclitaxel 10 mg/kg iv, from same day Compound 1 30 mg/kg po twice per day for 2 days (concurrent)) | number of CR cases ([3]; Group 5: paclitaxel 10 mg/kg iv, from same day Compound 1 30 mg/kg po twice per day for 4 days (concurrent)) | IC50 (human Aurora B) [nM] | IC50 (human Aurora A) [nM] | oral absorption property (concentration in blood plasma) [4] | toxicity / side effect ([5]; Group 4: docetaxel 30 mg/kg iv plus Compound 1 60 mg/kg po bid for 4 days per cycle) | antitumor effect (tumor volume), Combo (4 days) ([5]; docetaxel 30 mg/kg iv day 1 and 8, Compound 1 60 mg/kg po bid for 4 days from day 1 and day 8)
1 | O=C(O)[C@]1(Cc2cccc(Nc3nccs3)n2)CC[C@@H](Oc2cccc(Cl)c2F)CC1 [MK-5108] | enhancement of an antitumor effect is confirmed | – | – | – | – | – | – | – | – | – | – | – | –
2 | Cc1cc(Nc2nc(CC3(C(=O)O)CCN(C(=O)c4cccc(Cl)c4Cl)CC3)ccc2F)n[nH]1 [Production Example 1, 1-(2,3-dichlorobenzoyl)-4-((5-fluoro-6-(5-methyl-1H-pyrazol-3-ylamino)pyridin-2-yl)methyl)piperidine-4-carboxylic acid] | – | no significant toxicity such as death was observed | smaller than that of Group 4; also recorded: stronger antitumor enhancing effect | no CR cases | 2 | no serious toxicity such as death was observed | one | 4 | 140 | 0.4 | satisfactory oral absorption property | no significant toxicity such as death was observed | an antitumor effect is exerted
